The structures appear in SMILES notation.

Conditions in all cases: PANC-1, 24 h
For assay [1], the system named is PANC-1. In words: Growth inhibition of human PANC1 cells in nutrient-deprived medium at 10 uM incubated for 24 hrs by MTT assay (reference value: 0.0 +/- 1.9%). It counts as functional. (In general: Formazan colour is commonly taken as a measure of viable cells.)
The subject of assay [2] is PANC-1. In words: Growth inhibition of human PANC1 cells in nutrient-rich medium at 10 uM incubated for 24 hrs by MTT assay (reference value: 0.0 +/- 3.8%). It counts as functional.
For assay [3], the system named is PANC-1. The experiment in a line: Growth inhibition of human PANC1 cells in nutrient-deprived medium incubated for 24 hrs by MTT assay. It counts as functional, cell-based.

Turning to `CC(C)=CCC/C(C)=C/CC1Cc2c(OC(=O)Nc3ccc(F)cc3)cc(=O)n(CCCO)c2CC1(C)C` (stereo not given), the inhibition at 10 µM in the assay on PANC-1 [1] is 43.9%; in the assay on PANC-1 [2], 6.2%.
With `COc1ccc(OCCCOc2cc(=O)n(CCCO)c3c2CC(C/C=C(\C)CCC=C(C)C)C(C)(C)C3)cc1` (stereo not given), the values for the inhibition at 10 µM in the assay with PANC-1 [1] and in the assay on PANC-1 [2] were 20% and 0%, respectively.
Take `COc1ccccc1NC(=O)Oc1cc(=O)n(CCCO)c2c1CC(CC=C(C)C)C(C)(C)C2` (stereo not given): the IC50 in the assay on PANC-1 [3] is 7.7 µM. Besides, the inhibition at 10 µM with PANC-1 [1] is 71.1%; with PANC-1 [2], 0%.
Take `CC(C)=CCC1Cc2c(OC(=O)Nc3cccc(C(F)(F)F)c3)cc(=O)n(CCCO)c2CC1(C)C` (stereo not given): the inhibition at 10 µM is 54.3% in the assay on PANC-1 [1] and 0% with PANC-1 [2].
For the compound `COc1ccc(C(=O)NCCCOc2cc(=O)n(CCCO)c3c2CC(CC=C(C)C)C(C)(C)C3)cc1` (stereo not given), the values for the inhibition at 10 µM in the assay on PANC-1 [1] and in the assay with PANC-1 [2] were 55.5% and 2.5%, respectively.
Turning to `CC(C)=CCC/C(C)=C/CC1Cc2c(OCC=C(C)C)cc(=O)n(CCCO)c2CC1(C)C` (stereo not given), the values for the inhibition at 10 µM with PANC-1 [1] and in the assay on PANC-1 [2] were 30.3% and 15.9%, respectively.
For `CC(C)=CCOc1cc(=O)n(CCCO)c2c1CC(CC=C(C)C)C(C)(C)C2` (stereo not given) the same measures were 20.7% and 7.5%.
For `CC(C)=CCC1Cc2c(O)cc(=O)n(CCCO)c2CC1(C)C` (stereo not given) the same measures were 25.6% and 0%.
As for `CC(C)=CCC/C(C)=C/CC1Cc2c(OC(=O)Nc3ccc(Cl)cc3)cc(=O)n(CCCO)c2CC1(C)C` (stereo not given), the inhibition at 10 µM in the assay on PANC-1 [1] came to 47.2%; in the assay with PANC-1 [2] it was 4.3%.
As for `COc1ccc(NC(=O)Oc2cc(=O)n(CCCO)c3c2CC(CC=C(C)C)C(C)(C)C3)cc1` (stereo not given), the figures for the inhibition at 10 µM in the assay on PANC-1 [1] and in the assay on PANC-1 [2] were 3.7% and 0%, respectively.
On to `CC(C)=CCC/C(C)=C/CC1Cc2c(OCCCNS(=O)(=O)c3ccc(Br)cc3)cc(=O)n(CCCO)c2CC1(C)C` (stereo not given), for which the inhibition at 10 µM with PANC-1 [1] worked out at 15.2%; in the assay on PANC-1 [2] it was 0%.
As for `COc1ccc(OCCCOc2cc(=O)n(CCCO)c3c2CC(CC=C(C)C)C(C)(C)C3)cc1` (stereo not given), the inhibition at 10 µM in the assay on PANC-1 [1] came out at 47.7%; in the assay on PANC-1 [2] it was 4.1%.
For `CC(C)=CCC1Cc2c(OCc3ccccc3)cc(=O)n(CCCO)c2CC1(C)C` (stereo not given), the inhibition at 10 µM in the assay with PANC-1 [1] was -0.3%; with PANC-1 [2], 11.1%.
Regarding `CC(C)=CCC1Cc2c(OCCCNS(=O)(=O)c3ccc([N+](=O)[O-])cc3)cc(=O)n(CCCO)c2CC1(C)C` (stereo not given), the inhibition at 10 µM in the assay on PANC-1 [1] was 47.7%; in the assay on PANC-1 [2] it was 17.3%.
As for `CC(C)=CCC/C(C)=C/CC1Cc2c(OCCCNS(=O)(=O)c3ccc(Cl)cc3)cc(=O)n(CCCO)c2CC1(C)C` (stereo not given), the inhibition at 10 µM with PANC-1 [1] stood at 14.5%; in the assay on PANC-1 [2], 16.1%.
Turning to `CC(C)=CCC1Cc2c(OC(=O)Nc3cccc(F)c3)cc(=O)n(CCCO)c2CC1(C)C` (stereo not given), the inhibition at 10 µM with PANC-1 [1] came out at 66.1%; in the assay on PANC-1 [2] it was 0%.
In the case of `CC(C)=CCC1Cc2c(OC(=O)Nc3ccccc3F)cc(=O)n(CCCO)c2CC1(C)C` (stereo not given), the inhibition at 10 µM in the assay with PANC-1 [1] came out at 52.3%; with PANC-1 [2], 0%.
The matching figures for `CC(C)=CCC1Cc2c(OCCCNC(=O)c3ccc([N+](=O)[O-])cc3)cc(=O)n(CCCO)c2CC1(C)C` (stereo not given): 49.9% and 9.1%.
In the case of `COc1ccccc1NC(=O)Oc1cc(=O)n(CCCO)c2c1CC(C/C=C(\C)CCC=C(C)C)C(C)(C)C2` (stereo not given), the values for the inhibition at 10 µM in the assay with PANC-1 [1] and in the assay on PANC-1 [2] were 53% and 0%, respectively.
As for `CC(C)=CCC1Cc2c(OCCCNC(=O)c3ccco3)cc(=O)n(CCCO)c2CC1(C)C` (stereo not given), the inhibition at 10 µM in the assay on PANC-1 [1] turned out to be 2.1%; in the assay on PANC-1 [2], 4.3%.
On to `CC(C)=CCC/C(C)=C/CC1Cc2c(OC(=O)Nc3cccc(F)c3)cc(=O)n(CCCO)c2CC1(C)C` (stereo not given), for which the inhibition at 10 µM was 52.3% in the assay with PANC-1 [1] and 0% in the assay with PANC-1 [2].
With `CC(C)=CCC1Cc2c(OCCCNS(=O)(=O)c3ccc(Br)cc3)cc(=O)n(CCCO)c2CC1(C)C` (stereo not given), the inhibition at 10 µM in the assay with PANC-1 [1] worked out at 19.5%; in the assay on PANC-1 [2], 3.7%.
For `CC(C)=CCC1Cc2c(OC(=O)Nc3ccc(Cl)cc3)cc(=O)n(CCCO)c2CC1(C)C` (stereo not given), the inhibition at 10 µM is 49.8% in the assay with PANC-1 [1] and 0% in the assay with PANC-1 [2].
Take `CC(C)=CCC/C(C)=C/COc1cc(=O)n(CCCO)c2c1CC(C/C=C(\C)CCC=C(C)C)C(C)(C)C2` (stereo not given): the values for the inhibition at 10 µM with PANC-1 [1] and in the assay with PANC-1 [2] were 15.8% and 3.1%, respectively.
Take `CC(C)=CCC/C(C)=C/CC1Cc2c(OC(=O)Nc3cccc(C(F)(F)F)c3)cc(=O)n(CCCO)c2CC1(C)C` (stereo not given): the inhibition at 10 µM in the assay on PANC-1 [1] worked out at 44%; in the assay with PANC-1 [2] it was 6.7%.
`CC(C)=CCC/C(C)=C/CC1Cc2c(OCCCNS(=O)(=O)c3ccc(C(F)(F)F)cc3)cc(=O)n(CCCO)c2CC1(C)C` (stereo not given): the inhibition at 10 µM stood at 26.4% in the assay on PANC-1 [1] and 0% with PANC-1 [2].
For `CC(C)=CCC/C(C)=C/CC1Cc2c(OC(=O)Nc3ccc(Cl)c(Cl)c3)cc(=O)n(CCCO)c2CC1(C)C` (stereo not given) the same measures were 20% and 0%.

By inhibition is commonly meant the drop in the measured response relative to a control, in per cent. As a reminder, the IC50 is the concentration that gives 50% inhibition. Read a high IC50 as lower potency.

The record behind these values is ChEMBL document CHEMBL4346665, “Synthesis and evaluation of tetrahydroquinolin-2(1H)-one derivatives as novel anti-pancreatic cancer agents via targeting autophagy” (Eur J Med Chem, 2019).
